These results are taken from patent US4178449A, “Pyrazolo[1,5-a]pyrimidines and imidazo-[1,5-a]pyrimidines” (American Cyanamid Company, priority 1978, dated 1979).

Molecules are shown by their SMILES.

The subject of experiment [1] is 3H-diazepam binding to the brain receptors (rat frontal cortex P2-synaptosomal fraction). Description: inhibition of 3H-diazepam binding to brain receptors. Set-up: key: Active: A compound which exhibits the ability to inhibit binding by ≥20% is considered to be active. The conditions noted are these: 3H-diazepam (1.5 mM.), 20 minutes in ice. The text has this: Another test used to measure anxiolytic activity comprises measurement of the ability of test compounds to inhibit the binding of ^3 H-diazepam to the brain receptors of warm-blooded animals. The test is described by R. F. Squires in Nature, 266, No. 21 page 732 (April 1977) and H. Mohler and T. Okada, Science, 198, 849 (1977). A modification of this test was employed wherein the animals used were male albino rats of the Wistar strain, weighing 150-200 g. each from Royalhart Farms. Diazepam (methyl-^3 H) was obtained from New England Nuclear. The test compounds were solubilized in either dimethylformamide, acetic acid, ethanol or hydrochloric acid. Frontal cortex of rats was homogenized gently in 20 volumes of ice-cold 0.32 M. sucrose, centrifuged twice at 1000 g. for 10 minutes and then recentrifuged at 30,000 g. for 20 minutes to produce a crude P2 -synaptosomal fraction. The P2 -fraction was resuspended, twice the original volume, in hypotonic 50 mM. Tris.HCl (pH 7.4). The binding assay consisted of 300 μl. of the P2 -fraction suspension (0.350 mg.), 100 μl. of test drug and 100 μl. of ^3 H-diazepam ([…].),. which was added to 1.5 ml. of 50 mM. Tris.HCl (pH 7.4). Non-specific binding controls and total binding controls received 100 μl. of diazepam (3 μm.) and 100 μl. of deionized water, respectively, in place of the test compound. Incubation for 20 minutes proceeded in ice and was terminated by filtration, under vacuum, through Whatman GF/C glass fiber filters. The filters were washed twice with 5 ml. of ice-cold 50 mM. Tris.HCl (pH 7.4) and placed in scintillation vials. After drying at 50°-60° C. for 30 minutes, 10 ml. of Beckman Ready-Solve HP was added and the radioactivity determined in a Beckman Scintillation Counter. The percentage of inhibition of diazepam binding is calculated for each compound. […] Representative compounds of the present invention which were active when tested by the diazepam binding assay are set forth in Table III below.

For experiment [2], the system named is conflict situation (shocks taken) in Wistar strain rats. Put plainly: non-conditioned passive avoidance (conflict) procedure. On the set-up: key: Active: The test compounds are considered active if the shocks received by the test group are significantly different from the control group by the Mann-Whitney U test. The settings on record: oral or intraperitoneal, single or graded doses, tested at 30 or 60 minutes, 5 minute interval. It counts as in vivo, rat. Here is the method:
Another test which has been used to assess anti-anxiety effect is a non-conditioned passive avoidance procedure described by J. R. Vogel, B. Beer and D. E. Clody, "A Simple and Reliable Conflict Procedure for Testing Anti-Anxiety Agents", Psychopharmacologia, 21, 1-7 (1971). A conflict situation is induced in rats by a modification of this method. Groups of 6 naive, Wistar strain rats, weighing 200-240 g. each were deprived of water for 48 hours and food for 24 hours. The test compounds were administered in single or graded, oral or intraperitoneal doses suspended in a 2% starch vehicle containing 0.5% v/v polyethylene glycol and one drop of Polysorbate 80. Control animals received the vehicle alone. At 30 or 60 minutes each rat was placed in individual black plexiglass chambers. A 10% dextrose solution was available ad libitum from a tap located in the rear of the chamber. A 0.3 milliampere constant current 60 Hz pulsed DC shocking current was established between the stainless steel grid floor and the tap. After 20 seconds of non-shocked drinking, an alternating 5 second "shock-on" and 5 second "shock-off" cycle began and continued for a total of 5 minutes. The number of shocks taken by each rat during the 5 minute interval was recorded and compared to a control group. […]

In experiment [3] the test system is pentylenetetrazole clonic seizures in rats. Description: protection from convulsions resulting from the administration of pentylenetetrazole. Format: in vivo, rat. Set-up: key: Active: The test compounds are considered active if they protect 50% or more of the rats from clonic seizures. The conditions noted are these: oral or intraperitoneal, single or graded doses, pentylenetetrazole 21 to 23 mg./kg. i.v. at 30 or 60 minutes. Here is the method: The anti-anxiety properties of the novel compounds of the present invention have been established in a test which indicates anxiolytic activity by the measure of protection from convulsions resulting from the administration of pentylenetetrazole. Single or graded dose levels of the test compounds were administered orally or intraperitoneally in a 2% starch vehicle, to groups of at least 4 rats. At 30 or 60 minutes, the rats were treated intravenously with pentylenetetrazole at a dose of 21 to 23 mg./kg. of body weight. This dose is estimated to cause clonic seizures in 99% of unprotected rats. The test compounds are considered active if they protect 50% or more of the rats from clonic seizures. It has been reported [R. T. Hill and D. H. Tedeschi, "Animal Testing and Screening Procedures in Evaluating Psychotropic Drugs" in "An Introduction to Psychopharmacology", Eds. R. R. Rech and K. E. Moore, Raven Press, New York, pp. 237-288 (1971)] that there is a high degree of correlation between antagonism of pentylenetetrazole seizures in rats and anti-anxietyeffects in higher warm-blooded animals.

Turning to `c1ccc(-c2ccnc3ccnn23)cc1` [Example 1, 7-Phenylpyrazolo[1,5-a]pyrimidine], the “Result (inhibition of 3H-diazepam binding)” value in experiment [1] is “Active”. The “Result (number of shocks taken vs control, conflict procedure)” value in experiment [2] is reported as “Active”.

Take `N#Cc1cnn2c(-c3cccc(C(F)(F)F)c3)ccnc12` [Example 3, 7-(α,α,α-Trifluoro-m-tolyl)pyrazolo[1,5-a]pyrimidine-3-carbonitrile]: the “Result (inhibition of 3H-diazepam binding)” value in experiment [1] is given as “Active”. Besides, in experiment [2], the “Result (number of shocks taken vs control, conflict procedure)” value is “Active”. For the same molecule, the “Result (protection from pentylenetetrazole clonic seizures)” value in experiment [3] is recorded as “Active”.

As for `Cc1nn2c(-c3cccc(C(F)(F)F)c3)ccnc2c1C#N` [Example 11, 2-Methyl-7-(α,α,α-trifluoro-m-tolyl)pyrazolo[1,5-a]pyrimidine-3-carbonitrile], in experiment [1], the “Result (inhibition of 3H-diazepam binding)” value is recorded as “Active”. Moreover, in experiment [2], the “Result (number of shocks taken vs control, conflict procedure)” value was “Active”. The “Result (protection from pentylenetetrazole clonic seizures)” value in experiment [3] is “Active”.

As for `FC(F)(F)c1cccc(-c2ccnc3ccnn23)c1` [Example 12, 7-(α,α,α-Trifluoro-m-tolyl)pyrazolo[1,5-a]pyrimidine], the “Result (inhibition of 3H-diazepam binding)” value in experiment [1] is on record as “Active”. In addition, the “Result (protection from pentylenetetrazole clonic seizures)” value in experiment [3] is given as “Active”.

As for `FC(F)(F)c1cccc(-c2ccnc3c(Cl)cnn23)c1` [Example 14, 3-Chloro-7-(α,α,α-trifluoro-m-tolyl)pyrazolo[1,5-a]pyrimidine], in experiment [1], the “Result (inhibition of 3H-diazepam binding)” value was “Active”. In addition, in experiment [3], the “Result (protection from pentylenetetrazole clonic seizures)” value is reported as “Active”.

With `FC(F)(F)c1cccc(-c2ccnc3c(Br)cnn23)c1` [Example 15, 3-Bromo-7-(α,α,α-trifluoro-m-tolyl)pyrazolo[1,5-a]pyrimidine], the “Result (inhibition of 3H-diazepam binding)” value in experiment [1] is given as “Active”. In addition, the “Result (protection from pentylenetetrazole clonic seizures)” value in experiment [3] is listed as “Active”.

Take `N#Cc1c(C(N)=O)nn2c(-c3cccc(C(F)(F)F)c3)ccnc12` [Example 19, 3-Cyano-7-(α,α,α-trifluoro-m-tolyl)pyrazolo[1,5-a]pyrimidine-2-carboxamide]: the “Result (inhibition of 3H-diazepam binding)” value in experiment [1] is given as “Active”. Further, the “Result (protection from pentylenetetrazole clonic seizures)” value in experiment [3] is given as “Active”.

Take `N#Cc1cnn2c(-c3ccccc3C(F)(F)F)ccnc12` [Example 21, 7-(α,α,α-Trifluoro-o-tolyl)pyrazolo[1,5-a]pyrimidine-3-carbonitrile]: the “Result (number of shocks taken vs control, conflict procedure)” value in experiment [2] is on record as “Active”.

Consider `Cc1cnc2c(C#N)cnn2c1-c1cccc(C(F)(F)F)c1` [Example 23, 6-Methyl-7-(α,α,α-trifluoro-m-tolyl)pyrazolo-[1,5-a]pyrimidine-3-carbonitrile], for which the “Result (inhibition of 3H-diazepam binding)” value in experiment [1] is reported as “Active”. In experiment [3], the “Result (protection from pentylenetetrazole clonic seizures)” value is recorded as “Active”.

With `Cc1cnc2ccnn2c1-c1cccc(C(F)(F)F)c1` [Example 24, 6-Methyl-7-(α,α,α-trifluoro-m-tolyl)pyrazolo[1,5-a]pyrimidine], the “Result (inhibition of 3H-diazepam binding)” value in experiment [1] is “Active”. For the same molecule, the “Result (number of shocks taken vs control, conflict procedure)” value in experiment [2] is given as “Active”.

Consider `Cc1cnc2c(Cl)cnn2c1-c1cccc(C(F)(F)F)c1` [Example 25, 3-Chloro-6-methyl-7-(α,α,α-trifluoro-m-tolyl)pyrazolo[1,5-a]pyrimidine], for which the “Result (inhibition of 3H-diazepam binding)” value in experiment [1] is “Active”. Also, the “Result (number of shocks taken vs control, conflict procedure)” value in experiment [2] is on record as “Active”.

As for `COc1cccc(-c2ccnc3c(C#N)cnn23)c1` [Example 27, 7-(m-Methoxyphenyl)pyrazolo[1,5-a]pyrimidine-3-carbonitrile], in experiment [1], the “Result (inhibition of 3H-diazepam binding)” value is recorded as “Active”. Moreover, in experiment [3], the “Result (protection from pentylenetetrazole clonic seizures)” value was “Active”.

Take `O=Cc1cnn2c(-c3cccc(C(F)(F)F)c3)ccnc12` [Example 48, 7-(α,α,α-Trifluoro-m-tolyl)pyrazolo[1,5-a]pyrimidine-3-carboxaldehyde]: in experiment [3], the “Result (protection from pentylenetetrazole clonic seizures)” value was “Active”.

`ON=Cc1cnn2c(-c3cccc(C(F)(F)F)c3)ccnc12` [Example 49, 7-(α,α,α-Trifluoro-m-tolyl)pyrazolo[1,5-a]pyrimidine-3-carboxaldehyde, oxime]: the “Result (protection from pentylenetetrazole clonic seizures)” value in experiment [3] is recorded as “Active”.

As for `CC(=O)c1cnn2c(-c3cccc(C(F)(F)F)c3)ccnc12` [Example 54, Methyl 7-(α,α,α-trifluoro-m-tolyl)pyrazolo[1,5-a]pyrimid-3-yl ketone], in experiment [3], the “Result (protection from pentylenetetrazole clonic seizures)” value was “Active”.

Consider `CCOC(=O)c1ncn2c(-c3cccc(C(F)(F)F)c3)ccnc12` [Example 56, Ethyl 4-(α,α,α-trifluoro-m-tolyl)imidazolo[1,5-a]pyrimidine-8-carboxylate], for which the “Result (protection from pentylenetetrazole clonic seizures)” value in experiment [3] was “Active”.

Consider `CCOC(=O)c1cnn2c(-c3ccc(OC)c(OC)c3)ccnc12` [Example 59, Ethyl 7-(3,4-dimethoxyphenyl)pyrazolo[1,5-a]pyrimidine-3-carboxylate], for which the “Result (protection from pentylenetetrazole clonic seizures)” value in experiment [3] is on record as “Active”.

For the molecule `CCOC(=O)c1cnn2c(-c3ccc(CC)cc3)ccnc12` [Example 61, Ethyl 7-(p-ethylphenyl)pyrazolo[1,5-a]pyrimidine-3-carboxylate], in experiment [3], the “Result (protection from pentylenetetrazole clonic seizures)” value is recorded as “Active”.

As to `CCOC(=O)c1cnn2c(-c3ccc(C)c(C)c3)ccnc12` [Example 63, Ethyl 7-(3,4-xylyl)pyrazolo[1,5-a]pyrimidine-3-carboxylate], the “Result (protection from pentylenetetrazole clonic seizures)” value in experiment [3] is recorded as “Active”.

On to `FC(F)(F)c1cccc(-c2ccn3nccc3n2)c1` [Example 66, 5-(α,α,α-Trifluoro-m-tolyl)pyrazolo[1,5-a]pyrimidine], for which, in experiment [3], the “Result (protection from pentylenetetrazole clonic seizures)” value was “Active”.

Regarding `c1ccc(-c2ccn3nccc3n2)cc1` [Example 67, 5-Phenylpyrazolo[1,5-a]pyrimidine], in experiment [3], the “Result (protection from pentylenetetrazole clonic seizures)” value was “Active”.

Regarding `N#Cc1cnn2c(-c3cccc(F)c3)ccnc12` [Example 76, 7-(m-Fluorophenyl)pyrazolo[1,5-a]pyrimidine-3-carbonitrile], in experiment [3], the “Result (protection from pentylenetetrazole clonic seizures)” value is given as “Active”.

Take `CCOC(=O)c1cnn2c(-c3cccc(C)c3)ccnc12` [Example 77, Ethyl 7-(m-tolyl)pyrazolo[1,5-a]pyrimidine-3-carboxylate]: in experiment [3], the “Result (protection from pentylenetetrazole clonic seizures)” value is given as “Active”.

With `CN(C)CCOC(=O)c1cnn2c(-c3cccc(C(F)(F)F)c3)ccnc12` [Example 79, 2-Dimethylaminoethyl 7-(α,α,α-trifluoro-m-tolyl)pyrazolo[1,5-a]-pyrimidine-3-carboxylate], the “Result (protection from pentylenetetrazole clonic seizures)” value in experiment [3] was “Active”.

With `COCc1cnn2c(-c3cccc(C(F)(F)F)c3)ccnc12` [Example 80, 3-(Methoxymethyl)-7-(α,α,α-trifluoro-m-tolyl)pyrazolo[1,5-a]-pyrimidine], in experiment [3], the “Result (protection from pentylenetetrazole clonic seizures)” value is “Active”.
